Calls of active or inactive are those of the source. The rule behind the calls is not given here.

Test [1] concerns HepG2. The test is described as follows: Increase in glucose production in human HepG2 cells at incubated for 4 hrs by colorimetric glucose assay. The test is classed as functional, cell-based.
Test [2] concerns the target Trace amine-associated receptor 1 (Mus musculus) (UniProt Q923Y8). The test is described as follows: Agonist activity at mouse TAAR1 expressed in HEK293T cells assessed as induction of cAMP production by BRET assay relative to control. It is filed as functional, cell-based. The settings on record: filed as agonist. For orientation: Changes in cAMP serve as a functional read-out for many G protein-coupled receptors.

The target of test [3] is Trace amine-associated receptor 1 (Mus musculus, UniProt Q923Y8). In words: Agonist activity at mouse TAAR1 expressed in HEK293T cells assessed as induction of cAMP production by BRET assay. It is filed as functional, cell-based.
Sequence of Trace amine-associated receptor 1 (Q923Y8 whole entry): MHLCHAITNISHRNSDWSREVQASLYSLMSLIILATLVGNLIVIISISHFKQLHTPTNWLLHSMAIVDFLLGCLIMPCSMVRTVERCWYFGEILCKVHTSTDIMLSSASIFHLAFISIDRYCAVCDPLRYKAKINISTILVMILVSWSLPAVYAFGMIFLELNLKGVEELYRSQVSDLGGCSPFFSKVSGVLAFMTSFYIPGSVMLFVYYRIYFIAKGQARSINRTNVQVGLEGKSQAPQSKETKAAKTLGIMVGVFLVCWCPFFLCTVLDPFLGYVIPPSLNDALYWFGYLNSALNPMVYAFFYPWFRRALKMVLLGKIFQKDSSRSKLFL
The subject of a further test is Mus musculus. The test is described as follows: Increase in plasma glycaemia in CD1 mouse at 4.0 ug/kg, ip measured after 15 mins. The test is classed as functional, organism-based.
The subject of test [4] is HepG2. The test is described as follows: Hyperglycemic activity in human HepG2 cells incubated for 4 hrs by colorimetric glucose assay. The test is classed as functional, cell-based. The settings on record: HepG2, 4 h.
Test [5] concerns HepG2. In words: Inhibition of glucose production in human HepG2 cells at 10 uM incubated for 4 hrs by colorimetric glucose assay. The test is classed as functional, cell-based.
In test [6] the test system is HepG2. The test is described as follows: Increase in glucose production in human HepG2 cells at 0.1 to 1 uM incubated for 4 hrs by colorimetric glucose assay. It is filed as functional, cell-based. The settings on record: dose 0.1-1 µM.

Sequence of Trace amine-associated receptor 1 (Mus musculus) (Q923Y8 whole entry): as above

Take `Cc1cc(CCN)ccc1Cc1ccc(N)cc1`: in the test on HepG2 [1], the Activity entry was “Dose-dependent effect”. For the same compound, the Efficacy in test [2] stood at 100%. Further, the EC50 (in general, the concentration needed to bring the measured effect to its halfway point) in test [3] came to 119 nM. In addition, the result with Mus musculus was Active.

For the compound `CC(=O)Nc1ccc(Cc2ccc(OCCNC(=N)NC(=N)N)cc2C)cc1`, the EC50 in test [3] was > 10000 nM.

For `CC(=O)Nc1ccc(Cc2ccc(OCCN)cc2C)cc1`, the EC50 in test [3] was > 10000 nM. As for `CCN(C(C)=O)c1ccc(Cc2ccc(CCNC(C)=O)cc2C)cc1C(C)C`, the Efficacy in test [2] came out at 100%. The EC50 in test [3] is > 10000 nM. With `Cc1cc(CCN)cc(C)c1-c1ccc(N)cc1`, the Efficacy in test [2] turned out to be 100%. The EC50 in test [3] was found to be 633 nM. For `CC(=O)NCCOc1ccc(Cc2ccc(NC(C)=O)cc2)cc1`, the half-maximal effective concentration (EC50) in test [3] was > 10000 nM.

With `NCCc1ccc(Oc2ccc(O)cc2)c(I)c1`, in the test on HepG2 [4], the EC50 worked out at 840 nM. In the case of `Cc1cc(CCN)cc(C)c1Cc1ccc(N)cc1`, in test [2], the Efficacy is 100%. The EC50 in test [3] was determined as 158 nM. For `CC(=O)Nc1ccc(Cc2ccc(CCN)cc2C)cc1` the same measures were 100% and 3100 nM.

As to `CC(=O)Nc1ccc(Cc2ccc(OCCN)cc2)cc1`, the EC50 in test [3] is > 10000 nM. With `Cc1cc(OCCN)cc(C)c1Cc1ccc(N)cc1`, the Efficacy in test [2] stood at 100%. Moreover, in test [3], the EC50 is 134 nM. For `CCNc1ccc(Cc2ccc(CCN)cc2C)cc1C(C)C` the same measures were 100% and 102 nM.

As to `Cc1cc(CCN)ccc1-c1ccc(N)cc1`, the Efficacy in test [2] stood at 100%. The EC50 in test [3] came out at 1180 nM. Consider `Cc1cc(OCCNC(=N)NC(=N)N)ccc1Cc1ccc(N)cc1`, for which, in test [3], the concentration for a half-maximal effect (EC50) is > 10000 nM.

For the compound `CCN(C(C)=O)c1ccc(Cc2ccc(CCN)cc2C)cc1C(C)C`, the Efficacy in test [2] is 100%. In addition, the EC50 in test [3] was 440 nM. In the case of `Cc1cc(CCN)ccc1Cc1ccc(O)cc1`, in the test with HepG2 [5], the inhibition result is “Active”. Moreover, the Efficacy in test [2] stood at 100%. For the same compound, the result in the test on HepG2 [6] and with Mus musculus was Active. The EC50 in test [3] turned out to be 98 nM. For `CC(=O)NCCOc1ccc(Cc2ccc(NC(C)=O)cc2)c(C)c1`, in test [3], the EC50 was > 10000 nM.

Source of the values: ChEMBL document CHEMBL4715788, “Hit-to-Lead Optimization of Mouse Trace Amine Associated Receptor 1 (mTAAR1) Agonists with a Diphenylmethane-Scaffold: Design, Synthesis, and Biological Study” (J Med Chem, 2016).
